Laboratory results as given in patent US20100254940A1, “Compositions and Methods for Regulating an Immune Response in a Subject” (INNATE PHARMA, S.A., priority 2002, published 2010).

How the values were obtained:
Vg9Vd2 cells = experiment: EC50 of BrHPP for triggering Vg9Vd2 cells; format: cell-based
Description: In vitro, we and others (Lang, 1995) have shown that the activation of Vg9Vd2 cells occurs within minutes after the addition of the molecule. Two mechanisms may prevent the molecule to be active in vivo i) the likely rapid renal clearance of such a small molecule and ii) a degradation process in vivo. […] Nevertheless, the concentration of the molecule, injected by intravenous route in relatively high amount, should be maintained beyond the 20 nM EC50 for a significant time, if no additional, blood cell or organ related degradation process occurs in vivo.

IFNγ = experiment: Serum IFNγ by ELISA after BrHPP injection in cynomolgus monkeys; format: in vivo, cynomolgus monkeys (M. fascicularis)
Description: Serum cytokines (TNFα and INFg) were detected and quantified with the BIOSOURCE Cytoscreen™ ELISA monkey TNFa and Cytoscreen™ ELISA monkey INFg respectively (purchased from CliniSciences, Montrouge, France) according to the manufacturer's instructions.
Samples of sera were collected from group 2 animals during the first dose range assay (0 to 80 mg/kg) just before injection then 1 and 4 hours post injection, and assayed by ELISA specific for TNFa and IFNg.
Phosphostim was administered i.v., as slow infusions (50 ml in 30 minutes), at various dose levels to five groups of two animals (one male+one female). Males received two successive injections of BrHPP (Day 0 and Day 22) before sacrifice and females four injections (Days 0, 22, 52 and 84). Two females, selected upon their level of response to the 4th treatment, received a supplementary injection of BrHPP alone at Day 91, during γδ cell peripheral increase, for systemic cytokine dosages.

Vγ9Vδ2 T cells = experiment: Expansion of peripheral blood Vγ9Vδ2 T cells from PBMCs of mRCC patients with BrHPP and IL2; format: cell-based, human; conditions: 3 μM BrHPP + IL2, 15 days; 7 patients out of 12
Description: Blood samples from 12 RCC patients (50 ml) were collected just before or no more than 2 months after the nephrectomy. PBMCs were isolated by centrifugation on Ficoll-Hypaque density gradient (Amersham Biosciences). PBMCs from one healthy volunteer was used as control.
Ten million PBMCs were cultured at 2×10^6/ml in 24 well plate in RPMI 1640 supplemented with 10% v/v fetal calf serum (Fetal Clone irradiated, Hyclone).
Polyclonal Vγ9Vδ2 T cell lines were specifically expanded in presence of 3 μM BrHPP molecule (batch INPA-0214) and 100 IU/ml IL2 during 15 days.
Every three days, the volume corresponding to half culture medium was replaced by fresh medium containing only 200 IU/ml IL2
Before in vitro culture, phenotype of 2×10^5 PBMCs from RCC patients was analyzed using the following combinations of fluorescein isothiocyanate (FITC), phycoerythrin (PE) and phycoreythrin-cyanin 5 (PC5) conjugated antibodies to determine the NK, αβ and γδ T cells population (all purchased from Beckman-Coulter): CD3-PC5/Vδ2-FITC/IgG1-PE, CD8-PE, CD56-PE. At day 15 of the culture, a triple staining was performed on the expanded Vδ9Vδ2 T cells bulk. The following antibodies combinations were performed: […]

3-(bromomethyl)-3-butanol-1-yl-diphosphate [BrHPP]
EC50 (Vg9Vd2 cells): 20 nM | IFNg in the sera (IFNγ; fifth injection 80 mg/kg without IL2 at peak after fourth injection): detectable at one hour post injection, and increased at 4 hours post injection | Assessment of IFNγ (IFNγ; first dose range assay 0 to 80 mg/kg, 1 and 4 hours post injection): Did not Give Significant Results | patients presenting a Vγ9Vδ2 T cells amplification (Vγ9Vδ2 T cells): 58%
